Patent US6090605A, “Purified porcine kidney L-fucose kinase” (The Board of Trustees of the University of Arkansas, priority 1998, dated 2000)

Experiments:
pig kidney fucokinase [1] = target: T1, pig kidney fucokinase (Sus scrofa, UniProt I3LTC2); test: Inhibition of fucokinase by GDP-L-fucose and other GDP-linked sugars; assay type: biochemical
T1 construct: L-Fucokinase was purified to apparent homogeneity from the cytosolic fraction of pig kidney; from tissue; host or cells: pig kidney, cytosolic fraction
T1 sequence (I3LTC2 1-1083): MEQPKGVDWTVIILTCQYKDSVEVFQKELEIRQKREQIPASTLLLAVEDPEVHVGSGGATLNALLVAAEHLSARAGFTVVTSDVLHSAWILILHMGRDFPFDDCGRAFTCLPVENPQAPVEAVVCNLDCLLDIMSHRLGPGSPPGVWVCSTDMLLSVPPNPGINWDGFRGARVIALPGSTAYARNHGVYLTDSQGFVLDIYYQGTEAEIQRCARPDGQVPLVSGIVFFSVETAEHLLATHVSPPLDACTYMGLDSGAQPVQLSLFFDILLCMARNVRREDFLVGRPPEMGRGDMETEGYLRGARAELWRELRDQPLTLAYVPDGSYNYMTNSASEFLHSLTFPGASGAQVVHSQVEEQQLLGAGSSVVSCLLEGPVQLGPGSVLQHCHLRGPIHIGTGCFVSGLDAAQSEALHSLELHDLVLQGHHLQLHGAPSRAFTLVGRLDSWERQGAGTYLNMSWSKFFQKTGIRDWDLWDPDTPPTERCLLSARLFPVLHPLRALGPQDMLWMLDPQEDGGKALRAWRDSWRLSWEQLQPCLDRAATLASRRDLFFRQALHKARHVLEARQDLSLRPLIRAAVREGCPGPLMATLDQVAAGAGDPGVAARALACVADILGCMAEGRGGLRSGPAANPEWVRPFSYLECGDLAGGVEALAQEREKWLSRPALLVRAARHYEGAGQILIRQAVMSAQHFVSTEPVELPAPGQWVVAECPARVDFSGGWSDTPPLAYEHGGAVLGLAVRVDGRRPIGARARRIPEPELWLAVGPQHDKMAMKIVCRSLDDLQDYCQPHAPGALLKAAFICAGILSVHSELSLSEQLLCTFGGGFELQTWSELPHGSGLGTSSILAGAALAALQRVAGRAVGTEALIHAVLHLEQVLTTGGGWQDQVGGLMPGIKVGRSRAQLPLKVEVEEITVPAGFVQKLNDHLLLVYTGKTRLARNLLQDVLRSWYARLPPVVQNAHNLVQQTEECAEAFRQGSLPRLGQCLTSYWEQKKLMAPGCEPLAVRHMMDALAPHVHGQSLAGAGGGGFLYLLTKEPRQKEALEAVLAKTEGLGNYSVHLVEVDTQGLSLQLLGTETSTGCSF
Protocol: (§1) Fucokinase activity was assayed by measuring the production of L-fucose-1-Pfrom [^3 H]L-fucose and ATP. The incubation mixtures contained the following components (final concentrations) in a total volume of 150 μl: L-fucose, 0.1 mM; ATP, 5 mM; MgSO4, 5 mM; Tris-HCl buffer, pH 8.0, 65 mM; and various amounts of enzyme at the different stages of purification. Incubations were at 37° C. for 10 minutes, and reactions were terminated by heating the reaction mixtures in a boiling water bath for 1 minute. The incubation mixtures were then applied to a column of DE-52 contained in a Pasteur pipette, and the column was washed with at least 5 column volumes of 10 mM (NH4)HCO3 to remove the unbound material. The [^3 H]fucose-1-P was then eluted with 500 mM (NH4)HCO3. Aliquots of the eluates were assayed for their radioactive content by subjecting a portion to scintillation counting.
It can be seen that the amount of inhibition of fucokinase increased with increasing amounts of GDP-L-fucose, and the Ki for GDP-L-fucose was estimated to be about 10 μM.

pig kidney fucokinase [2] = target: T1, pig kidney fucokinase; test: Specificity of fucokinase for phosphate donor (nucleotides); assay type: biochemical; details: nucleotide added at 1 mM as phosphate donor
Protocol: as §1
The specificity of the nucleoside triphosphate was also examined by testing the ability of a variety of nucleotides to serve as phosphate donors in the phosphorylation of [^3 H]L-fucose. […] In addition, no activity is observed with any nucleoside diphosphates or monophosphates.

[3] = target: T2, pig kidney fucokinase (110 kDa band) (Sus scrofa, UniProt I3LTC2); test: Photoaffinity labeling of the fucokinase with 8-azido-ATP[32P]; assay type: binding; details: unlabeled ATP 0.3-1.2 mM; GTP, ITP 0.6 and 1.2 mM
T2 construct: L-Fucokinase was purified to apparent homogeneity from the cytosolic fraction of pig kidney; from tissue; host or cells: pig kidney, cytosolic fraction
T2 sequence (I3LTC2 1-1083): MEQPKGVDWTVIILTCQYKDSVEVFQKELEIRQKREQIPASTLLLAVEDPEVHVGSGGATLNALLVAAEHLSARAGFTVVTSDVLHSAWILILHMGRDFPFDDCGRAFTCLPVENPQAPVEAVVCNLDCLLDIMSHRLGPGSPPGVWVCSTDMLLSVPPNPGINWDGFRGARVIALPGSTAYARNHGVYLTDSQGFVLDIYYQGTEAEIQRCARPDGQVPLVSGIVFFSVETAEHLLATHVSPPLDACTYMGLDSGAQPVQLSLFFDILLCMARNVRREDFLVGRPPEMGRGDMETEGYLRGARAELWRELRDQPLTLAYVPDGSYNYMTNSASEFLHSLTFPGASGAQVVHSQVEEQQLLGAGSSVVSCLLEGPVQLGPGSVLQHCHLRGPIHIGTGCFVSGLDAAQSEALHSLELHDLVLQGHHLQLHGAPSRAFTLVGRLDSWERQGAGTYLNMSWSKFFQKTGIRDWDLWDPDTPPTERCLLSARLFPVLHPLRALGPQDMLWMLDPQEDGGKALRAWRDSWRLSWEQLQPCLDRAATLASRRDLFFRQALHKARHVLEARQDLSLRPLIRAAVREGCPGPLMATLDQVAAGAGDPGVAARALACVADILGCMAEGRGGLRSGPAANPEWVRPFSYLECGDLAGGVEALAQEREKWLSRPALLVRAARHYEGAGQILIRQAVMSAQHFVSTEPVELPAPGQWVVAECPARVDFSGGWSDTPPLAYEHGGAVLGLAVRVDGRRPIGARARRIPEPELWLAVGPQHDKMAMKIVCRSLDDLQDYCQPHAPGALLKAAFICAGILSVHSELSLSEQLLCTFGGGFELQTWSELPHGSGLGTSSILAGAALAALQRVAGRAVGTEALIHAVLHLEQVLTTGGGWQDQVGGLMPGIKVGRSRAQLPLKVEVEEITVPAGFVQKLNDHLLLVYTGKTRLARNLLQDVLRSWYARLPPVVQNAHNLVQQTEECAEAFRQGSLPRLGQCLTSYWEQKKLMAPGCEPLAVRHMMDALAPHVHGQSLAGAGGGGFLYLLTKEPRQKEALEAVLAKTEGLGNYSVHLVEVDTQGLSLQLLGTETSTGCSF
Protocol: The purified enzyme was incubated for 20 seconds with azido-ATP[^32 P], and the mixture was exposed to UV for 90 seconds. The reaction was stopped by adding loading buffer and the mixture subjected to SDS-PAGE. Radioactive bands were detected by exposure to film. Lanes are as follows: Lane 1, Probe+enzyme, but no UV; Lane 2, Probe+enzyme+UV; Lanes 3 through 6. Probe+enzyme+0.3, 0.6, 0.9, and 1.2 mM ATP+exposure to UV light; lanes 7 and 8, 0.6 and 1.2 mM GTP+probe+exposure to UV light: lanes 9 and 10, 0.6 and 1.2 mM ITP+probe+exposure to UV light. In lanes 11 and 12, the enzyme was incubated with N3 -GTP[^32 P ] and then exposed to UV light (lane 12) or not exposed to UV light (lane 11). Lane 13 is a control of enzyme+N3 -ATP[^32 P]+exposure to UV light.
Enzyme, at various stages of purity, was mixed with 8-azido-ATP[^32 P] in buffer, and allowed to incubate for 20 sec. in an ice bath. 8-Azido-ATP[^32 P] was prepared as previously described (16). After incubation, the reaction mixture was exposed to short wave UV light for about 90 sec. to activate the azido group, and the protein was subjected to SDS gel electrophoresis to separate the proteins. The gels were dried and exposed to film to locate the radioactive bands and were also stained with Coomassie blue to locate the various proteins. The specificity of the labeling was determined by examining the effect of various concentrations of unlabeled ATP or other nucleotides on the labeling of the protein by N3 -ATP[^32 P]. Various controls were also run, such as one in which exposure to UV was omitted.
Lanes 11-13 of FIG. 3 show the results of another experiment designed to determine whether 8-N3 -GTP[^32 P] could label the fucokinase. […] These experiments indicate that the fucokinase is quite specific for ATP.

pig kidney fucokinase [4] = target: T1, pig kidney fucokinase; test: Sugar specificity of purified fucokinase (radiolabeled sugars as phosphate acceptors); assay type: biochemical; details: for activity as phosphate acceptor (in words): purified enzyme; for Specific Activity: radiolabeled sugar 100 μM as phosphate acceptor
Protocol: as §1
The specificity of the kinase for various sugar substrates was examined in two different ways. In the first set of experiments, various radiolabeled sugars were tested as phosphate acceptors for the purified enzyme using the ion-exchange chromatography method for assay of activity. […] D-Arabinose, which has the same configuration at carbons 1 through 4 as L-fucose, was also a reasonable substrate for phosphorylation, and was about 10% as effective as L-fucose. On the other hand, all of the other sugars were ineffective as phosphate acceptors.

pig kidney fucokinase [5] = target: T1, pig kidney fucokinase; test: Inhibition of [3H]L-fucose phosphorylation by unlabeled monosaccharides; assay type: biochemical; details: unlabeled monosaccharide 500 μM; radiolabeled L-fucose substrate 100 μM
Protocol: as §1
Although it was possible to get a reasonable assessment of the sugar specificity of the kinase from the above experiment, it was not possible to test sugars such as D-fucose, since these sugars are not available in radioactive form. Thus, these unlabeled sugars were tested for their ability to inhibit the phosphorylation of [^3 H]L-fucose. The rationale for this experiment is that a sugar that inhibits the phosphorylation of L-fucose would probably compete with L-fucose for the phosphorylation (i.e., active) site.

[6] = test system: pig liver L-fucokinase preparation; details: cited from earlier work
[7] = test system: pig liver L-fucokinase preparation; details: cited from earlier work; remark: listed apart in the source

With `Nc1nc2c(ncn2[C@@H]2O[C@H](COP(=O)(O)OP(=O)(O)OC3O[C@H](CO)[C@@H](O)[C@H](O)[C@H]3O)[C@@H](O)[C@H]2O)c(=O)[nH]1` (stereo partly drawn) [GDP-D-glucose] the “inhibition of the fucokinase (in words)” value (pig kidney fucokinase [1]) was “did not inhibit”.

In the case of `O=c1[nH]cnc2c1ncn2[C@@H]1O[C@H](COP(=O)(O)OP(=O)(O)OP(=O)(O)O)[C@@H](O)[C@H]1O` [ITP], the “Specific Activity” value (pig kidney fucokinase [2]) is reported as 0.10 nmoles/mg protein/10 min and the “inhibition of labeling of the 110 kDa band by N3-ATP[32P] (in words)” value [3] is reported as “considerably less effective in inhibiting”.

With `Nc1nc2c(ncn2[C@@H]2O[C@H](COP(=O)(O)OP(=O)(O)O[C@H]3O[C@H](CO)[C@@H](O)[C@H](O)[C@@H]3O)[C@@H](O)[C@H]2O)c(=O)[nH]1` [GDP-D-mannose] the “inhibition of the fucokinase (in words)” value (pig kidney fucokinase [1]) was “did not inhibit”.

For `O=C[C@@H](O)[C@@H](O)[C@H](O)[C@H](O)CO` [D-mannose], the “activity as phosphate acceptor (in words)” value (pig kidney fucokinase [4]) was “does not phosphorylate”, the “Specific Activity” value (pig kidney fucokinase [4]) was 0 nmole/mg protein and the “Relative Activity (%)” value (pig kidney fucokinase [5]) was 100%. For the same molecule, the “rate of phosphorylation compared with L-fucose (in words)” value [6] was “about the same rate or better”.

For `O=C[C@H](O)[C@@H](O)[C@H](O)[C@H](O)CO` [D-glucose], the “activity as phosphate acceptor (in words)” value (pig kidney fucokinase [4]) was “does not phosphorylate”, the “Specific Activity” value (pig kidney fucokinase [4]) was 0.3 nmole/mg protein and the “Relative Activity (%)” value (pig kidney fucokinase [5]) was 100%. For the same molecule, the “phosphorylation of sugar by the about 70-fold purified preparation (in words)” value [7] was “considerable activity for phosphorylating” and the “rate of phosphorylation compared with L-fucose (in words)” value [6] was “about the same rate or better”.
